Data published in patent publication US20240018124A1, “MODULATORS OF FPR1 AND METHODS OF USING THE SAME” (BIOFRONT LTD, priority 2021, published 2024).

Columns and labels:
FPR1 [1] = biological target: T1, FPR1 (Homo sapiens (Human), UniProt P21462); assay: Cyclic adenosine monophosphate (cAMP) assay, CHO-K1 cells stably overexpressing hFPR1; type: cell-based; conditions: 2.5 μM Forskolin and 0.25 nM WKYMVm (FPR1 agonist)
Procedure: Cyclic Adenosine Monophosphate (cAMP) Assay
CHO-K1 cells stably overexpressing hFPR1 were plated into 384-well cell culture plates (2,000/well/5 μL) in 1× Stimulation Buffer (LANCE Ultra cAMP Kit, Perkin Elmer, TRF0263). 1 μL compound solution (prepared in ddH2O containing 0.2% DMSO) was added to each well. Plates were centrifuged briefly, and cells were incubated at 37° C. in 5% CO2 for 10 minutes. 4 μL solution containing 2.5 μM Forskolin and 0.25 nM WKYMVm (an FPR1 agonist, GLPBIO, GC15140) was then added to each well. 5 μL of Eu-cAMP solution (diluted to manufacturer's recommended working concentration in Detection Buffer, LANCE Ultra cAMP Kit) and 5 μL of ULight-anti-cAMP solution (diluted in Detection Buffer, LANCE Ultra cAMP Kit) were added to each well. Plates were centrifuged briefly, and cells were incubated at room temperature for 1 hour. Fluorescence emission at 665 nm and 620 nm from the samples was measured by a Perkin Elmer Envision instrument.
(§1) The effects of the compounds of the present disclosure on regulating the FPR1-mediated cell signaling were measured by monitoring the cellular cAMP level change and anti-reactive oxygen species formation in human neutrophils in the presence of an FPR1 agonist, respectively, as illustrated by the examples in Table 1.

FPR1 [2] = biological target: T1, FPR1; assay: Reactive oxygen species (ROS) assay in human neutrophils stimulated with fMLP; type: cell-based; conditions: human neutrophils from whole blood; fMLP (500 nM); DCFH-DA fluorescence; read-out: Anti-ROS IC50
Procedure: Reactive Oxygen Species (ROS) Assay
Human whole blood was collected, and ACK lysis buffer (ThermoFisher, A1049201) was added at 3 times the volume of the blood sample to lyse the red blood cells. The sample was incubated on ice for 15 minutes, and gently mixed twice during the incubation. 10 mL DPBS was then added, and the sample was centrifuged for 8 minutes. After removing the supernatant, remaining cells were resuspended in RPMI1640 medium containing 3% FBS and centrifuged again for 10 minutes. After removing the supernatant, cells were again resuspended in RPMI1640 medium containing 3% FBS. Neutrophil cell count was determined using FACS analysis by APC-labeled CD11b antibody (Biolegend, 101211) and FITC-labeled CD66b antibody (Biolegend, 305104). Neutrophils were then plated into 96-well plates (300,000/well). Plates were centrifuged and supernatant was removed. Cells were resuspended in 80 μL of compound solution (prepared in RPMI1640 medium containing 3% FBS), then incubated at room temperature for 15 minutes. 20 μL solution containing DCFH-DA (at the manufacturer's recommended concentration, Yeasen Biotechnology, 50101ES01) and fMLP (500 nM) was then added. Cells were incubated at 37° C. in 5% CO2 for 20 minutes away from light. After incubation, cells were placed on ice for 5 minutes, washed twice with 200 μL ice-cold DPBS, then resuspended in ice-cold DPBS at 100 µL/well. Fluorescence from each sample was measured at 485 nm excitation and 535 nm emission.
as §1

T1 sequence (P21462 whole entry): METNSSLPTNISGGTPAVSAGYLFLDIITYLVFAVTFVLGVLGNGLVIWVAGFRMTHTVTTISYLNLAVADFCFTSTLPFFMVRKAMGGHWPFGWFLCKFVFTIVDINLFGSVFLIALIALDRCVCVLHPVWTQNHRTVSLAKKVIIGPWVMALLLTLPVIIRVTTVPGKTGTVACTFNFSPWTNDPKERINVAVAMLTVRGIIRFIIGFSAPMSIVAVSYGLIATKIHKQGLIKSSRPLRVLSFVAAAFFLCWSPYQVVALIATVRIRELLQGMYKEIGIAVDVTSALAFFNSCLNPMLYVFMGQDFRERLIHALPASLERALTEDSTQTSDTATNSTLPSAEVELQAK

| Compound | IC50 (FPR1 [1]) | IC50 (FPR1 [2]) |
| --- | --- | --- |
| C[C@H](NC(=O)c1c(NS(=O)(=O)c2ccc(Cl)cc2)c(C2=CCC3(CC2)OCCO3)nn1C)C(C)(C)C [Compound 24, (S)-4-((4-chlorophenyl)sulfonamido)-N-(3,3-dimethylbutan-2-yl)-1-methyl-3-(1,4-dioxaspiro[4.5]dec-7-en-8-yl)-1H-pyrazole-5-carboxamide] | 1000 to 25000 nM | 1000 to 25000 nM |
| C[C@H](NC(=O)c1c(NS(=O)(=O)c2ccc(C3CC3)cc2)c(-c2ccc(F)cc2)nn1C)C(C)(C)C [Compound 26, (S)-4-((4-cyclopropylphenyl)sulfonamido)-N-(3,3-dimethylbutan-2-yl)-3-(4-fluorophenyl)-1-methyl-1H-pyrazole-5-carboxamide] | 1000 to 25000 nM | 100 to 1000 nM |
| C[C@H](NC(=O)c1c(NS(=O)(=O)c2ccc(Cl)cc2)c(C2CCC(F)(F)CC2)nn1C)C(C)(C)C [Compound 37, (S)-4-((4-chlorophenyl)sulfonamido)-3-(4,4-difluorocyclohexyl)-N-(3,3-dimethylbutan-2-yl)-1-methyl-1H-pyrazole-5-carboxamide] | 100 to 1000 nM | 100 to 1000 nM |
| C[C@H](NC(=O)c1c(NS(=O)(=O)c2ccc(Cl)cc2)c(-c2ccc(F)cc2)nn1C)C(C)(C)C [Compound 38, (S)-4-((4-chlorophenyl)sulfonamido)-N-(3,3-dimethylbutan-2-yl)-3-(4-fluorophenyl)-1-methyl-1H-pyrazole-5-carboxamide] | 100 to 1000 nM | 100 to 1000 nM |
| COCc1ncccc1-c1nn(C)c(C(=O)N[C@@H](C)C(C)(C)C)c1NS(=O)(=O)c1ccc(C#N)cc1 [Compound 42, (S)-4-((4-cyanophenyl)sulfonamido)-N-(3,3-dimethylbutan-2-yl)-3-(2-(methoxymethyl)pyridin-3-yl)-1-methyl-1H-pyrazole-5-carboxamide] | > 25000 nM | > 25000 nM |
| C[C@H](NC(=O)c1c(NS(=O)(=O)c2ccc(C#N)cc2)c(C2=CCC(F)(F)CC2)nn1C)C(C)(C)C [Compound 43, (S)-4-((4-cyanophenyl)sulfonamido)-3-(4,4-difluorocyclohex-1-en-1-yl)-N-(3,3-dimethylbutan-2-yl)-1-methyl-1H-pyrazole-5-carboxamide] | 1000 to 25000 nM | 100 to 1000 nM |
| C[C@H](NC(=O)c1c(NS(=O)(=O)c2ccc(C#N)cc2)c(C2CCC(F)(F)CC2)nn1C)C(C)(C)C [Compound 44, (S)-4-((4-cyanophenyl)sulfonamido)-3-(4,4-difluorocyclohexyl)-N-(3,3-dimethylbutan-2-yl)-1-methyl-1H-pyrazole-5-carboxamide] | 100 to 1000 nM | 100 to 1000 nM |

The next lines start with the values.

| IC50 (FPR1 [1]) | IC50 (FPR1 [2]) | Compound |
| --- | --- | --- |
| 100 to 1000 nM | 100 to 1000 nM | C[C@H](NC(=O)c1c(NS(=O)(=O)c2ccc(C#N)cc2)c(C2CCOCC2)nn1C)C(C)(C)C [Compound 25, (S)-4-((4-cyanophenyl)sulfonamido)-N-(3,3-dimethylbutan-2-yl)-1-methyl-3-(tetrahydro-2H-pyran-4-yl)-1H-pyrazole-5-carboxamide] |
| 100 to 1000 nM | 100 to 1000 nM | COc1ccc(S(=O)(=O)Nc2c(-c3ccc(F)cc3)nn(C)c2C(=O)N[C@@H](C)C(C)(C)C)cc1 [Compound 27, (S)—N-(3,3-dimethylbutan-2-yl)-3-(4-fluorophenyl)-4-((4-methoxyphenyl)sulfonamido)-1-methyl-1H-pyrazole-5-carboxamide] |
| 100 to 1000 nM | 100 to 1000 nM | C[C@H](NC(=O)c1c(NS(=O)(=O)c2ccc(C#N)cc2F)c(-c2ccc(F)cc2)nn1C)C(C)(C)C [Compound 28, (S)-4-((4-cyano-2-fluorophenyl)sulfonamido)-N-(3,3-dimethylbutan-2-yl)-3-(4-fluorophenyl)-1-methyl-1H-pyrazole-5-carboxamide] |
| 100 to 1000 nM | 100 to 1000 nM | COCc1ccccc1-c1nn(C)c(C(=O)N[C@@H](C)C(C)(C)C)c1NS(=O)(=O)c1ccc(C)cc1 [Compound 33, (S)—N-(3,3-dimethylbutan-2-yl)-3-(2-(methoxymethyl)phenyl)-1-methyl-4-((4-methylphenyl)sulfonamido)-1H-pyrazole-5-carboxamide] |
| 100 to 1000 nM | 100 to 1000 nM | C[C@H](NC(=O)c1c(NS(=O)(=O)c2ccc(Cl)cc2)c(-c2ccccc2C(F)F)nn1C)C(C)(C)C [Compound 39, (S)-4-((4-chlorophenyl)sulfonamido)-3-(2-(difluoromethyl)phenyl)-N-(3,3-dimethylbutan-2-yl)-1-methyl-1H-pyrazole-5-carboxamide] |
| 100 to 1000 nM | 100 to 1000 nM | C[C@H](NC(=O)c1c(NS(=O)(=O)c2ccc(C#N)cc2)c(-c2ccc(F)cc2F)nn1C)C(C)(C)C [Compound 41, (S)-4-((4-cyanophenyl)sulfonamido)-3-(2,4-difluorophenyl)-N-(3,3-dimethylbutan-2-yl)-1-methyl-1H-pyrazole-5-carboxamide] |
